Results: patent US8530179B2, “Electrochemical methods of detecting cancer with 4-aminophenyl phosphate” (Ramot at Tel-Aviv University Ltd, priority 2007, dated 2013)

Test system: HT-29 colon cancer cells
Test: Amperometric measurement of induced alkaline phosphatase activity in HT-29 cells on the electrochemical array chip (substrate p-APP, 220 mV)
Type: cell-based, human
Conditions: for induced alkaline phosphatase enzymatic activity (amperometric current): exposed for 96 hours, substrate PAPP, 220 mV
Experimental: HT-29 human colon cancer cells were grown in DMEM medium in the presence of fetal bovine serum at 37° C. in 95% air, 5% CO2 for 3 days prior to butyrate treatment. Butyrate at different concentrations was added to the HT-29 cell cultures. Concentrations applied were: 0, 0.078, 0.156, 0.3125, 0.625, 1.25, 2.5, 5 and 10 mM. Optimal butyrate concentration, LC50 and viability were calculated accordingly. The measurements were performed in PBS with the intact cells and without additional treatment of the cancer cells such as lysis.
BA (Sigma, Israel) ranging between 0.08-10 mM were introduced to HT-29 colon cancer cells and incubated for 72 h for optimization. BA at a constant concentration of 2.5 mM was applied in all electrochemical experiments. BA derivatives, butyroylmethyl-diethyl phosphate, and pivaloyloxymethyl butyrate, were synthesized as described [Rephaeli A, Zhuk R, Nudelman A, 2000, Drug Develop. Res. Vol 50:379-391]. Butyroylmethyl-diethyl phosphate was solubilized in PBS and pivaloyloxymethyl butyrate in DMSO followed by dilution with medium to a final DMSO concentration of ≦0.1%. The prodrugs were then introduced to the cells at a constant concentration of 50 μM and incubated for 96 h at 37° C. in 95% air, 5% CO2 conditions. Following incubation with the differentiation agents, viable cells were counted by tripa blue exclusion and tested for viability and LC50 calculations. Prior to all electrochemical measurement, cells were centrifuged and diluted in PBS. All measurements were performed in PBS. The influence of BA, pivaloyloxymethyl butyrate and butyroylmethyl-diethyl phosphate were examined by measuring the enzymatic activity of alkaline phosphatase.
Amperometric enzyme measurements were performed with the electrochemical substrate, p-APP. The enzymatic reaction product, aminophenol (p-AP), is oxidized at the gold working electrode at 220 mV and the generated current was measured. Eight-channeled 100 nL volume electrochemical chambers were loaded with HT-29 cancer cells, that were treated with BA or its derivatives. Cells were placed into the electrochemical chambers and the substrate was added to 1 mg/ml final concentration at a total volume of 100 nL. The generated current was measured and the number of cells was counted under the microscope. The correlation between cell number and current density was analyzed.
HT-29 colon cancer cells were exposed for 96 hours to various differentiation therapy agents and the induced alkaline phosphatase activity was measured. […]
In order to further examine the sensitivity of the biochip, increasing numbers of HT-29 colon cancer cells were incubated with butyroylmethyl-diethyl phosphate for different lengths of time. The amount of endogenous alkaline phosphatase was measured using the biochip of the present invention.

Compound	induced alkaline phosphatase enzymatic activity (amperometric current) (50 μM)	effect on cancer cells (alkaline phosphatase current signal) versus incubation time (eight, seventy eight and ninety six hour treatment, increasing cell numbers)	induced alkaline phosphatase enzymatic activity (amperometric current) (2.5 mM)
CCCC(=O)OCOP(=O)(OCC)OCC [butyroylmethyl-diethyl phosphate]	induced enzymatic activity of alkaline phosphatase	increased as incubation time increased	–
CCCC(=O)O [BA, Butyric acid]	–	–	induced enzymatic activity of alkaline phosphatase
CCCC(=O)OCOC(=O)C(C)(C)C [pivaloyloxymethyl butyrate]	did not induce any enzyme activity	–	–
